The subject of assay [1] is [14C] acetate incorporation in macromolecules, BT474 cells. Kind of assay: Cell based [14C] acetate incorporation assay. The following applies: Homo sapiens, BT-474, 3 h at 37° C., read-out: Cellular Activity (IC50 range). In short, it runs like this:
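BT474 cells (4×10^4/well, plated overnight) were preincubated with compound for 10 min at 37°C in HBSS. They were then given 0.1 μCi [14C]acetate plus 10 μM unlabelled acetate (both in the added acetate solution) for 3 h at 37°C, 5% CO2. Label incorporated into macromolecules was harvested onto PEI-treated filters and counted by scintillation.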

The target in a further assay is T1, human ACSS2 (Homo sapiens, UniProt Q9NR19).
T1 construct: The cytosolic fraction of BT474 cells was used as a source of the ACSS2 enzyme; endogenous in cells; host or cells: BT474 cells (cytosolic fraction)
T1 sequence (Q9NR19 whole entry): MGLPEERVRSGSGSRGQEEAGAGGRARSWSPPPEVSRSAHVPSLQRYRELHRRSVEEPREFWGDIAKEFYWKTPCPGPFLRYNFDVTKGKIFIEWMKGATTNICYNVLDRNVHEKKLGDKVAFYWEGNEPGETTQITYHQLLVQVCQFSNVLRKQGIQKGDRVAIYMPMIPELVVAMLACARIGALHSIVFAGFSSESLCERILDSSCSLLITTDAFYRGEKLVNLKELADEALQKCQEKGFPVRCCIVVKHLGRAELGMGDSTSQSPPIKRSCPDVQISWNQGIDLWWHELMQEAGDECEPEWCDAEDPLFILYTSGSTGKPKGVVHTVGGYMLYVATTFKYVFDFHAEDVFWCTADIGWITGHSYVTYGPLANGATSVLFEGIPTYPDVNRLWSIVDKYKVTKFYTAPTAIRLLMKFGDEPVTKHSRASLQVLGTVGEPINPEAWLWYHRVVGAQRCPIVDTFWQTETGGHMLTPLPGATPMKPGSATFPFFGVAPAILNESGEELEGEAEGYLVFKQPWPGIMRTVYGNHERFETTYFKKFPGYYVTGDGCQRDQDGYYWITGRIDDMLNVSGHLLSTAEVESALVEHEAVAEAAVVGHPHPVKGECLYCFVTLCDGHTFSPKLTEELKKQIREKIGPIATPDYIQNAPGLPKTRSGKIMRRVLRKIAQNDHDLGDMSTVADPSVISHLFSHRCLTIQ
Kind of assay: ACSS2 enzyme assay (acetyl-CoA formation, LC-MS/MS). The assay is classed as biochemical. The following applies: cytosolic fraction of BT474 cells as ACSS2 source; 100 μM acetate, CoA and ATP; 2 h at 25° C.; read-out: Enzyme Activity (IC50 range). In short, it runs like this: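 Enzyme source was BT474 cytosolic fraction (100 ng), preincubated 5 min with compound in 25 mM Tris-HCl pH7.4, 1 mM MgCl2, 1 mM DTT, 0.05% Tween20, 1% DMSO. Reaction started with 100 μM each of acetate, CoA and ATP, 2 h at 25 °C, stopped with TCA; acetyl-CoA quantified by LC-MS/MS.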

For orientation: IC50 means the midpoint of a concentration-inhibition curve.

In the case of `CCC(O)CNC(=O)Nc1ccc2nc(-c3cccnc3)c(-c3ccccc3)cc2c1` (stereo not shown) [Example 41, 1-(2-hydroxybutyl)-3-(3-phenyl-2-(pyridin-3-yl)quinolin-6-yl)urea], the IC50 (in assay [1]; on human ACSS2) was < 0.1 µM throughout.

In the case of `O=C(Nc1ccncc1)Nc1ccc2nc(-c3ccccc3)c(-c3ccccc3)cc2c1` [Example 142, 1-(2,3-diphenylquinolin-6-yl)-3-(pyridin-4-yl)urea], the IC50 (in assay [1]; at human ACSS2) was > 10 µM in each case.

As to `CCC(O)CNC(=O)Nc1ccc2nc(C)c(-c3ccccc3C)cc2c1` (stereo not shown) [Example 80, 1-(2-hydroxybutyl)-3-(2-methyl-3-(o-tolyl)quinolin-6-yl)urea], the IC50 (in assay [1]; at human ACSS2) was < 0.1 µM each time.

With `CCC(O)CNC(=O)Nc1ccc2nc(-c3ccccc3)c(-c3ccccc3)c(C(=O)O)c2c1` (stereo not shown) [Example 65, 6-(3-(2-hydroxybutyl)ureido)-2,3-diphenylquino-line-4-carboxylic acid], the IC50 in assay [1] was ≤ 10 µM; on human ACSS2, < 0.1 µM.

Consider `CC[C@@H](O)CNC(=O)Nc1ccc2nc(-c3ccccc3)c(-c3ccccc3)c(NC(=O)C3CC3)c2c1` [Example 92, (R)-N-(6-(3-(2-hydroxybutyl)ureido)-2,3-diphenylquinolin-4-yl)cyclopropane-carboxamide], for which the IC50 (in assay [1]; on human ACSS2) was < 0.1 µM each time.

Consider `CN1CCN(C(=O)Nc2ccc3nc(-c4ccccc4)c(-c4ccccc4)cc3c2)CC1` [Example 132, N-(2,3-diphenylquinolin-6-yl)-4-methylpiperazine-1-carboxamide], for which the IC50 in assay [1] was > 10 µM; at human ACSS2, ≤ 10 µM.

With `CCC(O)CNC(=O)Nc1ccc2nc(C)c(-c3ccccc3Cl)cc2c1` (stereo not shown) [Example 81, 1-(3-(2-chlorophenyl)-2-methylquinolin-6-yl)-3-(2-hydroxybutyl) urea], the IC50 (in assay [1]; at human ACSS2) was < 0.1 µM in each case.

Regarding `CCCCNC(=O)Nc1ccc2nc(-c3ccccc3)c(-c3ccccc3)cc2c1` [Example 3, 1-butyl-3-(2,3-diphenylquinolin-6-yl)urea], the IC50 (in assay [1]; at human ACSS2) was < 0.1 µM throughout.

As to `CCOc1ccccc1-c1nc2ccc(NC(=O)NCC(O)CC)cc2cc1-c1ccccc1` (stereo not shown) [Example 58, 1-(2-(2-ethoxyphenyl)-3-phenylquinolin-6-yl)-3-(2-hydroxybutyl) urea], the half-inhibitory concentration (IC50) (in assay [1]; at human ACSS2) was < 0.1 µM each time.

For the compound `O=C(Nc1ccc2nc(-c3ccccc3)c(-c3ccccc3)cc2c1)NC1CCCCC1` [Example 131, 1-cyclohexyl-3-(2,3-diphenylquinolin-6-yl)urea], the IC50 (in assay [1]; on human ACSS2) was ≤ 1 µM each time.

For `CCC(O)CNC(=O)Nc1ccc2nc(-c3ccc(F)cc3)c(-c3ccccc3F)cc2c1` (stereo not shown) [Example 47, 1-(3-(2-fluorophenyl)-2-(4-fluorophenyl)quinolin-6-yl)-3-(2-hydroxybutyl) urea], the IC50 (in assay [1]; at human ACSS2) was < 0.1 µM in each case.

Consider `CCC(O)CNC(=O)Nc1ccc2nc(-c3ccc(-c4ccccc4)cc3)c(-c3ccccc3)cc2c1` (stereo not shown) [Example 55, 1-(2-([1,1′-biphenyl]-4-yl)-3-phenylquinolin-6-yl)-3-(2-hydroxybutyl) urea], for which the figures for the IC50 (in assay [1]; at human ACSS2) were > 10 µM and ≤ 10 µM, respectively.

With `CCC(O)CNC(=O)Nc1ccc2nc(C)c(-c3cnn(C)c3)cc2c1` (stereo not shown) [Example 82, 1-(2-hydroxybutyl)-3-(2-methyl-3-(1-methyl-1H-pyrazol-4-yl)quinolin-6-yl)urea], the IC50 in assay [1] is > 10 µM; at human ACSS2, ≤ 1 µM.

Regarding `CCC(O)CNC(=O)Nc1ccc2nc(-c3ccccc3NC(C)=O)c(-c3ccccc3F)cc2c1` (stereo not shown) [Example 51, N-(2-(3-(2-fluorophenyl)-6-(3-(2-hydroxybutyl)ureido)quinolin-2-yl)phenyl)acet-amide], the IC50 (in assay [1]; on human ACSS2) was < 0.1 µM in each case.

In the case of `C#CCNC(=O)Nc1ccc2nc(-c3ccccc3)c(-c3ccccc3)cc2c1` [Example 135, 1-(2,3-diphenylquinolin-6-yl)-3-(prop-2-yn-1-yl)urea], the IC50 (in assay [1]; at human ACSS2) was ≤ 1 µM each time.

On to `CCCCC(F)(F)C(=O)Nc1ccc2nc(-c3ccccc3)c(-c3ccccc3)cc2c1` [Example 122, N-(2,3-diphenyl-quinolin-6-yl)-2,2-difluoro-hexanamide], for which the IC50 in assay [1] is > 10 µM; on human ACSS2, ≤ 10 µM.

For `CCCCNC(=O)Nc1ccc2nc(-c3ccccc3)c(-c3ccccc3)cc2c1-c1cccnc1O` [Example 5, 1-butyl-3-(5-(2-hydroxypyridin-3-yl)-2,3-diphenylquinolin-6-yl)urea], the IC50 (in assay [1]; at human ACSS2) was < 0.1 µM each time.

As for `CCC(O)CNC(=O)Nc1ccc2nc(C)c(-c3ccccc3F)c(C(N)=O)c2c1` (stereo not shown) [Example 73, 3-(2-fluorophenyl)-6-(3-(2-hydroxybutyl)ureido)-2-methylquinoline-4-carboxamide], the IC50 in assay [1] was ≤ 1 µM; at human ACSS2 it was < 0.1 µM.

Turning to `CCC(O)CNC(=O)Nc1ccc2nc(-c3ccccc3N(C)C)c(-c3ccccc3F)cc2c1` (stereo not shown) [Example 33, 1-(2-(2-(dimethylamino)phenyl)-3-(2-fluorophenyl)quinolin-6-yl)-3-(2-hydroxybutyl) urea], the IC50 (in assay [1]; at human ACSS2) was < 0.1 µM throughout.

With `CCCCNC(=O)Nc1ccc2nc(-c3ccccc3OC)c(-c3ccccc3F)cc2c1` [Example 37, 1-butyl-3-(3-(2-fluorophenyl)-2-(2-methoxyphenyl)quinolin-6-yl)urea], the IC50 (in assay [1]; at human ACSS2) was < 0.1 µM each time.

On to `CCC(O)CNC(=O)Nc1ccc2nc(-c3ccccc3OC)c(-c3ccccc3)cc2c1` (stereo not shown) [Example 12, 1-(2-hydroxybutyl)-3-(2-(2-methoxyphenyl)-3-phenylquinolin-6-yl)urea], for which the IC50 (in assay [1]; at human ACSS2) was < 0.1 µM each time.

In the case of `CC(=O)N1CCN(C(=O)Nc2ccc3nc(-c4ccccc4)c(-c4ccccc4)cc3c2)CC1` [Example 133, 4-acetyl-N-(2,3-diphenylquinolin-6-yl)piperazine-1-carboxamide], the IC50 is > 10 µM in assay [1] and ≤ 10 µM on human ACSS2.

Regarding `CCC(O)CNC(=O)Nc1ccc2nc(-c3ccc(=O)[nH]c3)c(-c3ccc(=O)[nH]c3)cc2c1` (stereo not shown) [Example 27, 1-(2,3-bis(6-oxo-1,6-dihydropyridin-3-yl)quinolin-6-yl)-3-(2-hydroxybutyl) urea], the IC50 in assay [1] was ≤ 10 µM; on human ACSS2, ≤ 1 µM.

For the compound `CCC(O)CNC(=O)Nc1ccc2nc(-c3ccccc3)c(-c3ccccc3)c(C#N)c2c1` (stereo not shown) [Example 70, 1-(4-cyano-2,3-diphenylquino-lin-6-yl)-3-(2-hydroxybutyl) urea], the IC50 (in assay [1]; on human ACSS2) was < 0.1 µM throughout.

For `CCCCNC(=O)Nc1ccc2nc(-c3ccccc3)c(-c3ccccc3F)cc2c1` [Example 16, 1-butyl-3-(3-(2-fluorophenyl)-2-phenylquinolin-6-yl)urea], the IC50 (in assay [1]; at human ACSS2) was < 0.1 µM each time.

In the case of `CCC(O)CNC(=O)Nc1ccc2nc(-c3cccc(F)c3)c(-c3cccc(F)c3)cc2c1` (stereo not shown) [Example 25, 1-(2,3-bis(3-fluorophenyl)quinolin-6-yl)-3-(2-hydroxybutyl) urea], the IC50 (in assay [1]; on human ACSS2) was ≤ 1 µM each time.

Source of the values: patent US20220298115A1, “SMALL MOLECULE INHIBITORS OF ACETYL COENZYME A SYNTHETASE SHORT CHAIN 2 (ACSS2)” (Curadev Pharma Pvt. Ltd., priority 2019, published 2022).
